Source: patent US20250296971A1, “GASTRIC INHIBITORY PEPTIDE RECEPTOR LIGANDS” (priority 2021, published 2025)
*1 amine or outer side, *2 acyl side, *3 side chain or, on linkers, in order; H or OH if unused. Where a SMILES comes first, the peptide text is derived from it. Bridges are numbered along the chain shown (N, C = ends). Side-chain parts run from the residue outwards. [ ]: non-standard residue; d: D form. The star is where a group is joined. NH(1-deoxy-D-glucityl) = OC[C@@H](O)[C@@H](O)[C@H](O)[C@@H](O)CN*; X21 = O=C(CCP(=O)(O)CN1CCN(CP(=O)(O)CO)CCN(CP(=O)(O)CO)CC1)*; DOTA = O=C(O)CN1CCN(CC(=O)O)CCN(CC(=O)*)CCN(CC(=O)O)CC1; X9 = O=C(O)CN1CCN(CC(=O)O)CCN([C@H](CCC(=O)*)C(=O)O)CC1; Trp(5-Cl) = N[C@@H](Cc1c[nH]c2ccc(Cl)cc12)C(=O)O; Pyridine(2,6-diCH2) = c1cc(C[*:1])nc(C[*:2])c1; Pro(4R-NH2) = N[C@H]1CN[C@H](C(=O)O)C1; Glutaryl = O=C(CCCC(=O)[*:2])[*:1]; PEG6 = NCCOCCOCCOCCOCCOCCOCCC(=O)O; Hyp = O=C(O)[C@@H]1C[C@@H](O)CN1; X1 = O=C(CN1CCC(N[*:1])CC1)[*:2]; X30 = NCCNCC(CNCCN)C(=O)*; hSer = N[C@@H](CCO)C(=O)O; Api = NC1(C(=O)O)CCNCC1; Thp = NC1(C(=O)O)CCOCC1

The compounds below were run against T1, GIPR (CHO-K1-hGIPR cells) (Homo sapiens, UniProt P48546) (assay: FACS binding assay). Settings: competition with 20 nM GIP-057, 4° C., 1 hour, read-out: pIC50 Category (converted).
T1 construct: host or cells: CHO-K1
T1 sequence (P48546 22-466): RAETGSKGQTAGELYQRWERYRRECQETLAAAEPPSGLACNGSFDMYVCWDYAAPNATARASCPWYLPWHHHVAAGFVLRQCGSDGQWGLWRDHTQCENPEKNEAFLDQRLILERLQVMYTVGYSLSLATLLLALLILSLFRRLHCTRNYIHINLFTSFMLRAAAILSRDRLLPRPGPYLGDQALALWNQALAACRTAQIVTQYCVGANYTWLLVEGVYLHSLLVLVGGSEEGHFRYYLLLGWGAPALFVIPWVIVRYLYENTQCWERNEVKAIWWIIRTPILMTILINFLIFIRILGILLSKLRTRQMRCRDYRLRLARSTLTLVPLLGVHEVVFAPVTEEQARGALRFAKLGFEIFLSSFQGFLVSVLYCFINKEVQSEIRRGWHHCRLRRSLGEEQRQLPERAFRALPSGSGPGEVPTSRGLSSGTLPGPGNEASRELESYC
Experimental: In order to determine binding of compounds according to the present invention to GIPR-expressing cells, a FACS binding assay was established.
CHO-K1-hGIPR cells (GenScript Biotech, #M00486) were cultured in Ham's F12 medium (Sigma-Aldrich, #N4888) including 10% fetal calf serum (FCS), 2 mM L-glutamine, 100 U/mL penicillin, 100 μg/mL streptomycin, 200 μg/mL Zeocin and 100 μg/mL HygromycinB. Cells were detached with Accutase (Biolegend, #BLD-423201) and washed in FACS buffer (PBS including 1% FCS). Cells were diluted in FACS buffer to a final concentration of 500.000 cells per mL. 200 μL of the cell suspension were transferred to a u-shaped non-binding 96-well plate (Greiner) and cells were washed in ice-cold FACS buffer.
Cells were washed twice in FACS buffer. An additional incubation step with 1 μg/mL APC-Streptavidin (Miltenyi; #130-106-791) in 50 μL FACS buffer for 30 min on ice was performed followed by two washes with FACS buffer.
Cells were analyzed in an Attune NxT flow cytometer. Median fluorescence intensities (MFI) of the APC/Cy5-channel were calculated by Attune NxT software. MFI values were plotted against peptide concentration and four parameter logistic (4PL) curve fitting and EC50/pEC50 or IC50/pIC50 calculations were performed using ActivityBase software.

Structure (SMILES) | IC50 [nM]
CC[C@H](C)[C@@H]1NC(=O)[C@H](CC(C)C)NC(=O)C2(CCN(C(=O)C(CNCCN)CNCCN)CC2)NC(=O)[C@@H](NC(=O)[C@@H](CC(C)C)NC(=O)[C@H](CCC(=O)O)NC(=O)[C@@H]2C[C@@H](N)CN2C(=O)[C@H](Cc2c[nH]c3ccc(Cl)cc23)NC(=O)[C@H](Cc2c[nH]c3ccccc23)NC(=O)[C@H](CC(=O)O)NC(=O)CCCC(=O)NC[C@H](O)[C@@H](O)[C@H](O)[C@H](O)CO)CSCc2cccc(n2)CSC[C@@H](C(=O)NC2CCN(CC(=O)N[C@H](CCC(=O)NC[C@H](O)[C@@H](O)[C@H](O)[C@H](O)CO)C(N)=O)CC2)NC1=O [GIP-030, AGLU-Glutar-Asp-Trp-5Clw-Tap-Glu-leu-[Cys(2Lut)-Apc(N4Ac)-Leu-Ile-Cys]-APAc-glu(AGLU)-NH2] ({NH(1-deoxy-D-glucityl)-Glutaryl}-DW[Trp(5-Cl)][Pro(4R-NH2)]E[dL]C[Api](X30)LIC[X1][dE](NH(1-deoxy-D-glucityl))-NH2; linker 7-11 via Pyridine(2,6-diCH2)) | < 10
CC[C@H](C)[C@@H]1NC(=O)[C@H](CC(C)C)NC(=O)C2(CCN(C(=O)CNC(=O)CC[C@H](C(=O)O)N3CCN(CC(=O)O)CCN(CC(=O)O)CC3)CC2)NC(=O)[C@@H](NC(=O)[C@@H](CC(C)C)NC(=O)[C@H](CCC(=O)O)NC(=O)[C@@H]2C[C@@H](N)CN2C(=O)[C@H](Cc2c[nH]c3ccc(Cl)cc23)NC(=O)[C@H](Cc2c[nH]c3ccccc23)NC(=O)[C@H](CC(=O)O)NC(=O)CCCC(=O)NC[C@H](O)[C@@H](O)[C@H](O)[C@H](O)CO)CSCc2cccc(n2)CSC[C@@H](C(=O)NC2CCN(CC(=O)N[C@H](CCC(=O)NC[C@H](O)[C@@H](O)[C@H](O)[C@H](O)CO)C(N)=O)CC2)NC1=O [GIP-031, AGLU-Glutar-Asp-Trp-5Clw-Tap-Glu-leu-[Cys(2Lut)-Apc(NODAGA-Gly)-Leu-Ile-Cys]-APAc-glu(AGLU)-NH2] ({NH(1-deoxy-D-glucityl)-Glutaryl}-DW[Trp(5-Cl)][Pro(4R-NH2)]E[dL]C[Api]([Gly-X9])LIC[X1][dE](NH(1-deoxy-D-glucityl))-NH2; linker 7-11 via Pyridine(2,6-diCH2)) | < 10
CC[C@H](C)[C@@H]1NC(=O)[C@H](CC(C)C)NC(=O)C2(CCOCC2)NC(=O)[C@@H](NC(=O)[C@@H](CC(C)C)NC(=O)[C@H](CCC(=O)O)NC(=O)[C@@H]2C[C@@H](N)CN2C(=O)[C@H](Cc2c[nH]c3ccc(Cl)cc23)NC(=O)[C@H](Cc2c[nH]c3ccccc23)NC(=O)[C@H](CC(=O)O)NC(=O)[C@@H](CCC(=O)NC[C@H](O)[C@@H](O)[C@H](O)[C@H](O)CO)NC(=O)CCOCCOCCOCCOCCOCCOCCNC(=O)CN2CCN(CC(=O)O)CCN(CC(=O)O)CCN(CC(=O)O)CC2)CSCc2cccc(n2)CSC[C@@H](C(=O)NC2CCN(CC(=O)N[C@H](CCC(=O)NC[C@H](O)[C@@H](O)[C@H](O)[C@H](O)CO)C(N)=O)CC2)NC1=O [GIP-037, DOTA-PEG6-glu(AGLU)-Asp-Trp-5Clw-Tap-Glu-leu-[Cys(2Lut)-Thp-Leu-Ile-Cys]-APAc-glu(AGLU)-NH2] ({DOTA-PEG6}-[dE](NH(1-deoxy-D-glucityl))DW[Trp(5-Cl)][Pro(4R-NH2)]E[dL]C[Thp]LIC[X1][dE](NH(1-deoxy-D-glucityl))-NH2; linker 8-12 via Pyridine(2,6-diCH2)) | < 10

The remaining lines, values ahead:

IC50 [nM] | Structure (SMILES)
< 10 | CC[C@H](C)[C@@H]1NC(=O)[C@H](CC(C)C)NC(=O)C2(CCN(C(=O)CN3CCN(CC(=O)O)CCN(CC(=O)O)CCN(CC(=O)O)CC3)CC2)NC(=O)[C@@H](NC(=O)[C@@H](CC(C)C)NC(=O)[C@H](CCC(=O)O)NC(=O)[C@@H]2C[C@@H](N)CN2C(=O)[C@H](Cc2c[nH]c3ccc(Cl)cc23)NC(=O)[C@H](Cc2c[nH]c3ccccc23)NC(=O)[C@H](CC(=O)O)NC(=O)CN2CCC(NC(=O)CCCC(=O)NC[C@H](O)[C@@H](O)[C@H](O)[C@H](O)CO)CC2)CSCc2cccc(n2)CSC[C@@H](C(=O)N[C@H](CCC(=O)NC[C@H](O)[C@@H](O)[C@H](O)[C@H](O)CO)C(N)=O)NC1=O [GIP-033, AGLU-Glutar-APAc-Asp-Trp-5Clw-Hyp-Glu-leu-[Cys(2Lut)-Apc(DOTA)-Leu-Ile-Cys]-glu(AGLU)-NH2] ({NH(1-deoxy-D-glucityl)-Glutaryl}-[X1]DW[Trp(5-Cl)][Pro(4R-NH2)]E[dL]C[Api](DOTA)LIC[dE](NH(1-deoxy-D-glucityl))-NH2; linker 8-12 via Pyridine(2,6-diCH2))
< 10 | CC[C@H](C)[C@@H]1NC(=O)[C@H](CC(C)C)NC(=O)C2(CCN(C(=O)CN3CCN(CC(=O)O)CCN(CC(=O)O)CCN(CC(=O)O)CC3)CC2)NC(=O)[C@@H](NC(=O)[C@@H](CC(C)C)NC(=O)[C@H](CCC(=O)O)NC(=O)[C@@H]2C[C@@H](N)CN2C(=O)[C@H](Cc2c[nH]c3ccc(Cl)cc23)NC(=O)[C@H](Cc2c[nH]c3ccccc23)NC(=O)[C@H](CCO)NC(=O)CCCC(=O)NC[C@H](O)[C@@H](O)[C@H](O)[C@H](O)CO)CSCc2cccc(n2)CSC[C@@H](C(=O)NC2CCN(CC(=O)N[C@H](CCC(=O)NC[C@H](O)[C@@H](O)[C@H](O)[C@H](O)CO)C(N)=O)CC2)NC1=O [GIP-034, AGLU-Glutar-Hse-Trp-5Clw-Tap-Glu-leu-[Cys(2Lut)-Apc(DOTA)-Leu-Ile-Cys]-APAc-glu(AGLU)-NH2] ({NH(1-deoxy-D-glucityl)-Glutaryl}-[hSer]W[Trp(5-Cl)][Pro(4R-NH2)]E[dL]C[Api](DOTA)LIC[X1][dE](NH(1-deoxy-D-glucityl))-NH2; linker 7-11 via Pyridine(2,6-diCH2))
< 10 | CC[C@H](C)[C@@H]1NC(=O)[C@H](CC(C)C)NC(=O)C2(CCN(C(=O)CN3CCN(CC(=O)O)CCN(CC(=O)O)CCN(CC(=O)O)CC3)CC2)NC(=O)[C@@H](NC(=O)[C@H](CC(C)C)NC(=O)[C@H](CCC(=O)O)NC(=O)[C@@H]2C[C@@H](N)CN2C(=O)[C@H](Cc2c[nH]c3ccc(Cl)cc23)NC(=O)[C@H](Cc2c[nH]c3ccccc23)NC(=O)[C@H](CC(=O)O)NC(=O)CCCC(=O)NC[C@H](O)[C@@H](O)[C@H](O)[C@H](O)CO)CSCc2cccc(n2)CSC[C@@H](C(=O)NC2CCN(CC(=O)N[C@H](CCC(=O)NC[C@H](O)[C@@H](O)[C@H](O)[C@H](O)CO)C(N)=O)CC2)NC1=O [GIP-035, AGLU-Glutar-Asp-Trp-5Clw-Tap-Glu-Leu-[Cys(2Lut)-Apc(DOTA)-Leu-Ile-Cys]-APAc-glu(AGLU)-NH2] ({NH(1-deoxy-D-glucityl)-Glutaryl}-DW[Trp(5-Cl)][Pro(4R-NH2)]ELC[Api](DOTA)LIC[X1][dE](NH(1-deoxy-D-glucityl))-NH2; linker 7-11 via Pyridine(2,6-diCH2))
< 10 | CC[C@H](C)[C@@H]1NC(=O)[C@H](CC(C)C)NC(=O)C2(CCOCC2)NC(=O)[C@@H](NC(=O)[C@@H](CC(C)C)NC(=O)[C@H](CCC(=O)O)NC(=O)[C@@H]2C[C@@H](O)CN2C(=O)[C@H](Cc2c[nH]c3ccc(Cl)cc23)NC(=O)[C@H](Cc2c[nH]c3ccccc23)NC(=O)[C@H](CC(=O)O)NC(=O)[C@@H](CCC(=O)NC[C@H](O)[C@@H](O)[C@H](O)[C@H](O)CO)NC(=O)CN2CCN(CC(=O)O)CCN(CC(=O)O)CCN(CC(=O)O)CC2)CSCc2cccc(n2)CSC[C@@H](C(=O)NC2CCN(CC(=O)N[C@H](CCC(=O)NC[C@H](O)[C@@H](O)[C@H](O)[C@H](O)CO)C(N)=O)CC2)NC1=O [GIP-036, DOTA-glu(AGLU)-Asp-Trp-5Clw-Hyp-Glu-leu-[Cys(2Lut)-Thp-Leu-Ile-Cys]-APAc-glu(AGLU)-NH2] ({DOTA}-[dE](NH(1-deoxy-D-glucityl))DW[Trp(5-Cl)][Hyp]E[dL]C[Thp]LIC[X1][dE](NH(1-deoxy-D-glucityl))-NH2; linker 8-12 via Pyridine(2,6-diCH2))

Same assay, conditions: pIC50 Category, competition with 20 nM GIP-057, 4° C., 1 hour

Structure (SMILES) | IC50 [nM]
CC[C@H](C)[C@@H]1NC(=O)[C@H](CC(C)C)NC(=O)C2(CCN(C(=O)CCP(=O)(O)CN3CCN(CP(=O)(O)CO)CCN(CP(=O)(O)CO)CC3)CC2)NC(=O)[C@@H](NC(=O)[C@@H](CC(C)C)NC(=O)[C@H](CCC(=O)O)NC(=O)[C@@H]2C[C@@H](N)CN2C(=O)[C@H](Cc2c[nH]c3ccc(Cl)cc23)NC(=O)[C@H](Cc2c[nH]c3ccccc23)NC(=O)[C@H](CC(=O)O)NC(=O)CCCC(=O)NC[C@H](O)[C@@H](O)[C@H](O)[C@H](O)CO)CSCc2cccc(n2)CSC[C@@H](C(=O)NC2CCN(CC(=O)N[C@H](CCC(=O)NC[C@H](O)[C@@H](O)[C@H](O)[C@H](O)CO)C(N)=O)CC2)NC1=O [GIP-029, AGLU-Glutar-Asp-Trp-5Clw-Tap-Glu-leu-[Cys(2Lut)-Apc(NOPO)-Leu-Ile-Cys]-APAc-glu(AGLU)-NH2] ({NH(1-deoxy-D-glucityl)-Glutaryl}-DW[Trp(5-Cl)][Pro(4R-NH2)]E[dL]C[Api](X21)LIC[X1][dE](NH(1-deoxy-D-glucityl))-NH2; linker 7-11 via Pyridine(2,6-diCH2)) | < 10
